# Several values for one entry are separate records, joined by “and”; a condition that tells them apart may be missing. Equal entries are not always repeated. Where two headings read alike, the source gives them in different places.
# Assays:
# P. falciparum Dd2^Dd2 = tested on: P. falciparum Dd2^Dd2; design: key to Phenotype, Dd2^Dd2: S: sensitive; R: resistant; details: cited from earlier work
# P. falciparum Dd2^F145I = tested on: P. falciparum Dd2^F145I; design: key to Phenotype, Dd2^F145I: S: sensitive; R: resistant; details: cited from earlier work
# P. falciparum Dd2^3D7 = tested on: P. falciparum Dd2^3D7; design: key: S: sensitive; R: resistant; details: ref [19],[20],[51]; cited from earlier work
# P. falciparum 7G8^7G8 = tested on: P. falciparum 7G8^7G8; design: key to Phenotype, 7G8^7G8: S: sensitive; R: resistant; details: cited from earlier work
# P. falciparum 7G8^C350R = tested on: P. falciparum 7G8^C350R; design: key to Phenotype, 7G8^C350R: S: sensitive; R: resistant; details: cited from earlier work
# P. falciparum NF10^NF = tested on: P. falciparum NF10^NF; design: method as in ref 1 Veiga et al. 2016; details: means ± SEM, N 6; ref 1 Veiga et al. 2016; read-out: IC50 NF10NF; cited from earlier work
# P. falciparum FCB = details: read-out: IC50 FCB; means ± SEM, N 4; ref 2 Sidhu et al. 2006; cited from earlier work
# [1] = tested on: P. falciparum 3D7 ABS parasites; test: ABS parasite survival assay, 72 h, flow cytometry; assay type: cell-based; details: Plasmodium falciparum
# Method: (§1) P. falciparum ABS parasites were cultured at 3% hematocrit in human O^+ RBCs in RPMI-1640 media supplemented with 25 mM HEPES, 50 mg/L hypoxanthine, 2 mM L-glutamine, 0.21% sodium bicarbonate, 0.5% (w/v) AlbuMAXII (Invitrogen) and 10 μg/mL gentamycin. Culture flasks were kept in modular incubator chambers (Billups-Rothenberg) in a 5% O2, 5% CO2, and 90% N2 atmosphere at 37°C. Synchronized ring-stage parasites were obtained by two consecutive rounds of treatment with 5% D-sorbitol in 48-hour intervals. […] This was done by exposing cultures at 1% hematocrit and 0.3% parasitemia in 96-well plates in the presence of drugs in a two-fold 10 or 12-point serial dilution in duplicate along with drug-free controls. After a 72-hour incubation, parasite survival was assessed by flow cytometry on an iQue flow cytometer (Sartorius) using SYBR Green and MitoTracker Deep Red FM (Life Technologies) as nuclear stain and vital dye, respectively. Parasite survival was determined as a percentage relative to drug-free control. IC50 values were interpolated from log concentration versus response curves in Prism 9 (GraphPad Prism Software Inc.).
# [2] = tested on: P. falciparum Dd2 ABS parasites; test: ABS parasite survival assay, 72 h, flow cytometry; assay type: cell-based; details: Plasmodium falciparum
# Method: as §1
# [3] = MTT cytotoxicity assay, 72 h; assay type: cell-based, Human; details: human, HepG2 cells; MTT, 72 h, N = 3
# Method: (§2) Human hepatoma (HepG2) and fibroblast-like monkey kidney cells (COS-7) were cultured in Dulbecco’s Modified Eagle Medium supplemented with 10% heat-inactivated fetal bovine serum and gentamycin (40 mg/L) at 37°C in a 5% CO2 atmosphere. Cytotoxicity of test compounds was measured by metabolic reduction of mitochondrial enzymes using the MTT assay (3-[4,5-dimethyl-thiazol-2-yl]-2,5-diphenyltetrazolium chloride). Cells were seeded at 10^5 cells/well in 96-well plates and incubated for 72 hours in the presence of a 2-fold 12-point serial dilution of drugs along with drug-free controls. After adding 15 μL of MTT (5 mg/mL) to the wells, plates were centrifuged at 317g for 5 minutes and the pellet was resuspended in isopropanol. Absorbance was measured at 570 nm (CLARIOStar, Labtech BMG). Cell viability was determined by formazan production, and was expressed as a percentage of untreated control wells.
# HepG2 cells = test: MTT cytotoxicity assay, 72 h; assay type: cell-based, Human
# Method: as §2
# [4] = tested on: pool of barcoded P. falciparum lines (Dd2 and 3D7 backgrounds); test: Resistome growth assay, pool of 51 barcoded lines; assay type: cell-based, Plasmodium falciparum; details: 3 × IC50 constant, 14 days
# Method: The resistome growth assay employs a parasite pool consisting of 51 barcoded lines including both Dd2 and 3D7 genetic backgrounds, with wild-type lines for both (S3 Table). Most lines used were derived from in vitro resistance selection experiments, with others having been CRISPR edited. All lines were barcoded via CRISPR editing of a 101bp barcode cassette into the non-essential pfpare locus (PF3D7_0709700). Parasites were cultured in RPMI-1640 medium supplemented with HEPES (5.94 g/L), NaHCO3 (2.1 g/L), glutamax (1×), hypoxanthine (50 mg/L), gentamycin ([…]), and AlbumaxII (5 g/L) at a […]. Parasite growth was monitored over 14 days by flow cytometry (Cytoflex, Beckman Coulter) by staining with 1× SYBR Green and 0.2 μM MitoTracker Deep Red. Parasitemia adjustments were made to maintain a healthy range of <5% parasitemia. Parasite cultures were harvested at day 14 and lysed by saponin (0.05%), with pellets washed twice with PBS. Barcodes were PCR amplified using 5 μL of parasite pellet and sequenced by Illumina amplicon sequencing.
# [5] = tested on: P. falciparum Dd2-Polδ parent culture; test: ABS susceptibility after resistance selection, parental line; assay type: cell-based, Plasmodium falciparum; details: for % Parasite survival: Dd2 Pol D parent, rep 1-5
# Method: as §1
# Resistance to LDT-623 was assessed using single-step in vitro resistance selection protocols. […] Dd2-Pol δ is a hypermutable line with two point mutations in DNA polymerase δ that compromise its proofreading activity Cultures were monitored daily by thin blood smears until live parasites were no longer detectable. Drug-containing media was changed daily until parasites cleared, and every other day thereafter. Cultures were passaged once weekly by reducing the volume by 25% and replacing 1/3 of RBCs. Recrudescence monitoring was carried out twice a week by thin blood smears for 60 days. In the event of recrudescence, parasite susceptibility to LDT-623 was tested as described above.
structure (smiles),measurement,setting,value
"CCN(CC)CCCC(C)Nc1ccnc2cc(Cl)ccc12 (centres unmarked) [CQ, chloroquine]",IC50,"P. falciparum Dd2^Dd2; Dd2Dd2, mean ± SEM, ref 1 (Ross et al., 2018)",156 ± 9.3 nM
same,IC90,"P. falciparum Dd2^Dd2; Dd2Dd2, mean ± SEM, ref 2 (Dhingra et al., 2019)",214 ± 7.4 nM
same,"Phenotype, Dd2^Dd2","P. falciparum Dd2^Dd2; ref [19],[20],[51]",R
same,IC50,"P. falciparum Dd2^F145I; Dd2F145I, mean ± SEM, ref 1 (Ross et al., 2018)",19.3 ± 1.3 nM
same,"Phenotype, Dd2^F145I","P. falciparum Dd2^F145I; a: sensitized to CQ compared to the parental line but not fully sensitive, ref [19],[20],[51]",S ^a
same,"Phenotype, Dd2^3D7",P. falciparum Dd2^3D7,S
same,IC50,"P. falciparum 7G8^7G8; 7G87G8, mean ± SEM, ref 3 (Kim et al., 2019)",83 ± 7.5 nM
same,"Phenotype, 7G8^7G8","P. falciparum 7G8^7G8; ref [19],[20],[51]",R
same,IC50,"P. falciparum 7G8^C350R; 7G8C350R, mean ± SEM, ref 3 (Kim et al., 2019)",6.9 ± 0.3 nM
same,"Phenotype, 7G8^C350R","P. falciparum 7G8^C350R; ref [19],[20],[51]",S
same,IC50,P. falciparum NF10^NF,216 ± 15.3 nM
same,IC50,P. falciparum FCB,217 ± 34.6 nM
COc1cc2nccc(Nc3cccc(Oc4ccccc4)c3)c2cc1OC [LDT-623],IC50,"[1]; 3D7, ABS parasites, N = 3, read-out: IC50 3D7",130 ± 10 nM
same,IC50,"[1]; 3D7, CQ-sensitive strain, read-out: IC50 3D7",127 nM
same,IC50,"[1]; 3D7, read-out: IC50 3D7",126.6 ± 0.1 nM
same,IC50,"[2]; DD2, ABS parasites, N = 3, read-out: IC50 Dd2",300 ± 30 nM
same,IC50,"[2]; DD2, CQ-resistant strain, read-out: IC50 Dd2",365 nM
same,IC50,"[2]; DD2, read-out: IC50 Dd2",365 ± 17.5 nM
same,CC50 at 72 h,[3],1300 ± 100 nM
same,SI (CC50 HepG2 / IC50 3D7),HepG2 cells,10
same,growth recovery of barcoded pool,[4],no growth recovery
same,mean AUC of survival curve,[5]; Dd2-Polδ parent culture,35.4
same,% Parasite survival,[5]; 0.09 uM,76.35% and 85.80% and 91.78% and 97.25%
same,% Parasite survival,[5]; 0.19 uM,89.20% and 72.57% and 70.57% and 79.41% and 83.99%
same,% Parasite survival,[5]; 25 uM,0.00% and 0.89%
same,% Parasite survival,[5]; 50 uM,0.00% and 1.83%

# — article PMC11521309, “A novel 4-aminoquinoline chemotype with multistage antimalarial activity and lack of cross-resistance with PfCRT and PfMDR1 mutants” (PLOS Pathogens, 2024)
